US11814379B2, “Cyano quinoline amide compounds as HER2 inhibitors and methods of use” (DANA-FARBER CANCER INSTITUTE, INC., priority 2018, dated 2023)

Assays:
[1] = tested on: Calu-3 (Her2 amplification); test: Antiproliferative activities in lung cancer cells, Calu-3; format: cell-based; details: Homo sapiens
Description: (§1) Cell growth and growth inhibition were evaluated by […] (MTS) assay. A total of 3,000-4,000 cells were plated per well in 96-well plates and treated with each drug (at a dose range from 1 nM to 10 μM) for 3 days. Each experimental point was conducted in six replicates and all tests were repeated more than three times. IC50 data was obtained from a nonlinear regression model with sigmoidal dose response using GraphPad Prism (GraphPad Software, Inc.).

[2] = biological target: T1, HER2 insYVMA (A775_G776insYVMA) (Homo sapiens, UniProt P04626, INS775YVMA); details: afatinib as a single agent; dacomitinib phase II trial, 13 patients; cited from earlier work
T1 construct: no response in all 13 patients with HER2 insYVMA (A775_G776insYVMA); host or cells: patients' tumours

[3] = tested on: DFCI429 (Her2 amplification); test: Antiproliferative activities in lung cancer cells, DFCI429; format: cell-based
Description: as §1

H1781 (HER2 InsVC) = test: Antiproliferative activities in lung cancer cells, H1781; format: cell-based; details: NCI-H1781
Description: as §1
(§2) All ERBB insertion mutations were generated by using the Quikchange II XL Site-Directed Mutagenesis Kit (Agilent Tech) according to the manufacturer's protocol. The insertion mutations and wildtype form of human EGFR and HER2 were transduced into Ba/F3 cells by retroviral infection followed by treatment of puromycin and withdrawal of interleukin-3 for selection. Transformed Ba/F3 cells and the NSCLC cell line H1781 (with HER2 insertion VC) were cultured in Roswell Park Memorial Institute-1640 medium (Gibco) with 10% fetal bovine serum and 1% penicillin/streptomycin (Gibco). Wild-type EGFR Ba/F3 cells were cultured in the same media supplemented with EGF (10 ng/ml).
(§3) Cell growth inhibition was assessed by MTS assay for Ba/F3 and H1781 cells. A total of 3,000-4,000 cells were seeded for per well in 96-well plates, and were exposed to representative compounds of the application (1 nM to 10 μM) for 72 hours. All experimental points included 6 wells. […] The growth curves were fitted using a nonlinear regression model with sigmoidal dose response.
(§4) Activities of representative compounds of the present application in inhibiting HER2 were tested by MTS assay (for Ba/F3 cells and H1781 cells). For each assay, a total of 3,000-4,000 cells were seeded per well in 96-well plates and were exposed to indicated compounds with a concentration of […] for 72 hours.

HER2 mutations = details: Phase I and II clinical data; cited from earlier work
[4] = tested on: H1819 (Her2 amplification); test: Antiproliferative activities in lung cancer cells, H1819; format: cell-based; details: NCI-H1819
Description: as §1

Ba/F3 cells HER2 InsVC = Ba/F3 cells HER2 InsVC (Homo sapiens, UniProt P04626, DELINS776-776VC, cells depend on it); test: Antiproliferative activities (MTS assay), Ba/F3 cells HER2 InsVC; format: cell-based; details: 72 hours
Description: as §1
as §2, with “Transformed Ba/F3 cells and the NSCLC cell line H1781 (with HER2 insertion VC) were cultured in Roswell Park Memorial Institute-1640 medium (Gibco) with 10% fetal bovine serum and 1% penicillin/streptomycin (Gibco).” left out
as §3, §4

Ba/F3 cells HER2 InsGSP = Ba/F3 cells HER2 InsGSP (Homo sapiens, UniProt P04626, DUP778-780, cells depend on it); test: Antiproliferative activities (MTS assay), Ba/F3 cells HER2 InsGSP; format: cell-based; details: 72 hours
Description: as §1
as §2, with “Transformed Ba/F3 cells and the NSCLC cell line H1781 (with HER2 insertion VC) were cultured in Roswell Park Memorial Institute-1640 medium (Gibco) with 10% fetal bovine serum and 1% penicillin/streptomycin (Gibco).” left out
as §3, §4

Ba/F3 cells WT EGFR = Ba/F3 cells WT EGFR (Homo sapiens, UniProt P00533); test: Antiproliferative activities (MTS assay), Ba/F3 cells WT EGFR; format: cell-based; details: 72 hours
Sequence of Ba/F3 cells WT EGFR (P00533 whole entry, change not shown): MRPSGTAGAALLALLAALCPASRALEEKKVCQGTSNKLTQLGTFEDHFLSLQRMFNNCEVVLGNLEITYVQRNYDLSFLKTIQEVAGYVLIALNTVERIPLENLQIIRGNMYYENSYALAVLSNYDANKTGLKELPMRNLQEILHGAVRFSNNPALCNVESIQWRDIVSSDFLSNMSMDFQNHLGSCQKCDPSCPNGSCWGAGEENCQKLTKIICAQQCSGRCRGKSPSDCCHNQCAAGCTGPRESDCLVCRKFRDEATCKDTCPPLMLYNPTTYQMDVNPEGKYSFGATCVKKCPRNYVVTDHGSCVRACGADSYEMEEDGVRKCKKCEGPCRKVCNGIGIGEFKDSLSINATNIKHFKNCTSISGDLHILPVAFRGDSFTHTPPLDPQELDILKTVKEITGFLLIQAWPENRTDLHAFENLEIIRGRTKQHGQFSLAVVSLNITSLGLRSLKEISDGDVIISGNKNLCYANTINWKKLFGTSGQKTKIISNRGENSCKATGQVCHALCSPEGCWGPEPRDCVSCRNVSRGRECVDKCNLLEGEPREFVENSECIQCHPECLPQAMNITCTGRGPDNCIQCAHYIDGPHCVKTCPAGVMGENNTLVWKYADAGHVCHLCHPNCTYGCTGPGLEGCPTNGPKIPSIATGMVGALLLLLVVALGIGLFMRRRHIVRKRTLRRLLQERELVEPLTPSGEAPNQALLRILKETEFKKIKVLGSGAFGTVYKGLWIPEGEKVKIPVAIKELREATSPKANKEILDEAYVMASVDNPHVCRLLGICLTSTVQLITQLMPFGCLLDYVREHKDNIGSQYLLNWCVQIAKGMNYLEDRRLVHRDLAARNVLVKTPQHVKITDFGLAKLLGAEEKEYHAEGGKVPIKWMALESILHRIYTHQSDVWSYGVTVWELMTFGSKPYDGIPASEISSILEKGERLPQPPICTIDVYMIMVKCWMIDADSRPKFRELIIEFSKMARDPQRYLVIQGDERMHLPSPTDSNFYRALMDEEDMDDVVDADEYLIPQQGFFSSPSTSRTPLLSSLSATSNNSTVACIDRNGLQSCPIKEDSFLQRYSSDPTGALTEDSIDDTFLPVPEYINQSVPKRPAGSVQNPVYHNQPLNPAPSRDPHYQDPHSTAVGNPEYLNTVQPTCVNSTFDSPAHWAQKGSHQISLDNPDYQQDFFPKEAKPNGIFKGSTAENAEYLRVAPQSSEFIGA
Description: as §1
as §2, with “Transformed Ba/F3 cells and the NSCLC cell line H1781 (with HER2 insertion VC) were cultured in Roswell Park Memorial Institute-1640 medium (Gibco) with 10% fetal bovine serum and 1% penicillin/streptomycin (Gibco).” left out
as §3, §4

Ba/F3 cells HER2 InsYVMA = Ba/F3 cells HER2 InsYVMA (Homo sapiens, UniProt P04626, DUP772-775, cells depend on it); test: Antiproliferative activities (MTS assay), Ba/F3 cells HER2 InsYVMA; format: cell-based; details: 72 hours
Description: as §1
as §2, with “Transformed Ba/F3 cells and the NSCLC cell line H1781 (with HER2 insertion VC) were cultured in Roswell Park Memorial Institute-1640 medium (Gibco) with 10% fetal bovine serum and 1% penicillin/streptomycin (Gibco).” left out
as §3, §4

Ba/F3 cells HER2 InsWLV = Ba/F3 cells HER2 InsWLV (Homo sapiens, UniProt P04626, DELINS774-774WLV, cells depend on it); test: Antiproliferative activities (MTS assay), Ba/F3 cells HER2 InsWLV; format: cell-based; details: 72 hours
Description: as §1
as §2, with “Transformed Ba/F3 cells and the NSCLC cell line H1781 (with HER2 insertion VC) were cultured in Roswell Park Memorial Institute-1640 medium (Gibco) with 10% fetal bovine serum and 1% penicillin/streptomycin (Gibco).” left out
as §3, §4

Ba/F3 cells WT HER2 [5] = biological target: T2, Ba/F3 cells WT HER2 (Homo sapiens, UniProt P04626); test: Antiproliferative activities (MTS assay), Ba/F3 cells WT HER2; format: cell-based; details: Ba/F3 cells, 72 hours, MTS
T2 construct: Antiproliferative Activities (Ba/F3 cells) WT HER2; other: Ba/F3 cells, 72 hours, MTS
Description: as §1
as §2, with “Transformed Ba/F3 cells and the NSCLC cell line H1781 (with HER2 insertion VC) were cultured in Roswell Park Memorial Institute-1640 medium (Gibco) with 10% fetal bovine serum and 1% penicillin/streptomycin (Gibco).” left out
as §3, §4

Ba/F3 cells WT HER2 [6] = test: as above; format: cell-based, human; details: for EGFR EC50/HER2 EC50: Ba/F3 cells, ratio WT EGFR to WT HER2
Description: as §1
as §2, with “Transformed Ba/F3 cells and the NSCLC cell line H1781 (with HER2 insertion VC) were cultured in Roswell Park Memorial Institute-1640 medium (Gibco) with 10% fetal bovine serum and 1% penicillin/streptomycin (Gibco).” left out
as §3, §4

WT EGFR = WT EGFR (Homo sapiens, UniProt P00533); test: Biochemical activities, WT EGFR
Sequence of WT EGFR (P00533 25-1210): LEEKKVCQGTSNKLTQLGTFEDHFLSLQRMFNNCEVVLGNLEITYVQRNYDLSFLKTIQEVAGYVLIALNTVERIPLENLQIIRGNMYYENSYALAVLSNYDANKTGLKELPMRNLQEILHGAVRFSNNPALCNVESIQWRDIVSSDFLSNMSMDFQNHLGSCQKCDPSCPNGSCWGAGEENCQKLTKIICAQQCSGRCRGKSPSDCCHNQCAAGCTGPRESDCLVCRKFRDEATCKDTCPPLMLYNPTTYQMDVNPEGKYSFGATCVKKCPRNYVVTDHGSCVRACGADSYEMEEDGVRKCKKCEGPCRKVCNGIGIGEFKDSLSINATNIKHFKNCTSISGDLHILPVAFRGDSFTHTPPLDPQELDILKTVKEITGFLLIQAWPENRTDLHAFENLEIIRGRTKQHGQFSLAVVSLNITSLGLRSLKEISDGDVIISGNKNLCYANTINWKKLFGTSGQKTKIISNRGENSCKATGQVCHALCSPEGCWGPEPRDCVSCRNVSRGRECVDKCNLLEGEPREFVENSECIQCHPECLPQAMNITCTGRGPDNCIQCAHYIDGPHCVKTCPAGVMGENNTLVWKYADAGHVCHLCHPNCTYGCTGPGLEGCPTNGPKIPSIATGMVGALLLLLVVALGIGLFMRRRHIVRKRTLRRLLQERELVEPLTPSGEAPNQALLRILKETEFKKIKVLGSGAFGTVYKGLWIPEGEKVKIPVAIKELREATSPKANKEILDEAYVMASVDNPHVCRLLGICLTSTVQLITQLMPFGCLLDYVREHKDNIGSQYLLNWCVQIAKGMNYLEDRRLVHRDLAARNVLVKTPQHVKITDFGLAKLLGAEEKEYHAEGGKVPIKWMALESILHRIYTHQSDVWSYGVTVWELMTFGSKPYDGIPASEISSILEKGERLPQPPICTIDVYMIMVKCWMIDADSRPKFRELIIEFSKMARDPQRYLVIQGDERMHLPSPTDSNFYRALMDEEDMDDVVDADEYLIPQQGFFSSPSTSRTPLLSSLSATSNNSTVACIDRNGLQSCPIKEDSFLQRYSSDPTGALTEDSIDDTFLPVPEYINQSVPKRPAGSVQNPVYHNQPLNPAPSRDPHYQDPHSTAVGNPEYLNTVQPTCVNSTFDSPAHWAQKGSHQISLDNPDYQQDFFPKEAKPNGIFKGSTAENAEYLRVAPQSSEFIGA

WT HER2 = WT HER2 (Homo sapiens, UniProt P04626); test: Biochemical activities, WT HER2

SMILES | EC50 [1] | response of patients with HER2 insYVMA [2] | EC50 [3] | EC50 (H1781 (HER2 InsVC)) | response to treatment of patients harboring HER2 mutations (HER2 mutations) | EC50 [4] | EC50 (Ba/F3 cells HER2 InsVC) | EC50 (Ba/F3 cells HER2 InsGSP) | EC50 (Ba/F3 cells WT EGFR) | EC50 (Ba/F3 cells HER2 InsYVMA) | EC50 (Ba/F3 cells HER2 InsWLV) | EC50 (Ba/F3 cells WT HER2 [5]) | EGFR EC50/HER2 EC50 (Ba/F3 cells WT HER2 [6]) | inhibition of HER2 and its mutant over EGFR (Ba/F3 cells WT HER2 [6]; FIG. 4 bar graph) | EC50 (WT EGFR) | EC50 (WT HER2)
CN(C)C/C=C/C(=O)Nc1cc2c(Nc3ccc(F)c(Cl)c3)ncnc2cc1O[C@H]1CCOC1 [Afatinib] | 100 to 250 nM | durable responses | 100 to 250 nM | 100 to 250 nM | partially responded | < 100 nM | – | – | – | – | – | – | – | – | – | –
CCOc1cc2ncc(C#N)c(Nc3ccc(Oc4ccn5ncnc5c4)c(C)c3)c2cc1NC(=O)/C=C/CN(C)C [Compound 1, (E)-N-(4-((4-([1,2,4]triazolo[1,5-a]pyridin-7-yloxy)-3-methylphenyl)amino)-3-cyano-7-ethoxyquinolin-6-yl)-4-(dimethylamino)but-2-enamide] | < 100 nM | – | 100 to 250 nM | 100 to 250 nM | – | < 100 nM | < 100 nM | < 100 nM | 250 to 500 nM | < 100 nM | < 100 nM | < 100 nM | 32 | selective inhibition | 100 to 250 nM | < 100 nM
CCOc1cc2ncc(C#N)c(Nc3ccc(Oc4ccn5ncnc5c4)c(F)c3)c2cc1NC(=O)/C=C/CN(C)C [Compound 2] | – | – | – | – | – | – | 250 to 500 nM | < 100 nM | > 500 nM | < 100 nM | 100 to 250 nM | < 100 nM | 222 | – | 100 to 250 nM | < 100 nM
CCOc1cc2ncc(C#N)c(Nc3ccc(Oc4ccn5ncnc5c4)c(Cl)c3)c2cc1NC(=O)/C=C/CN(C)C [Compound 3] | – | – | – | – | – | – | < 100 nM | < 100 nM | 250 to 500 nM | < 100 nM | < 100 nM | < 100 nM | 87 | – | – | –
CCOc1cc2ncc(C#N)c(Nc3ccc(Oc4ccn5ccnc5c4)c(C)c3)c2cc1NC(=O)/C=C/CN(C)C [Compound 4] | – | – | – | – | – | – | < 100 nM | < 100 nM | > 500 nM | < 100 nM | 100 to 250 nM | < 100 nM | 49 | – | – | –
CCOc1cc2ncc(C#N)c(Nc3ccc(Oc4ccn5nccc5c4)c(C)c3)c2cc1NC(=O)/C=C/CN(C)C [Compound 5] | – | – | – | – | – | – | < 100 nM | < 100 nM | 100 to 250 nM | < 100 nM | 100 to 250 nM | < 100 nM | 6 | – | – | –
CCOc1cc2ncc(C#N)c(Nc3ccc(Oc4ccc5ccn(C)c5c4)c(C)c3)c2cc1NC(=O)/C=C/CN(C)C [Compound 6] | – | – | – | – | – | – | < 100 nM | < 100 nM | > 500 nM | < 100 nM | 100 to 250 nM | < 100 nM | 178 | – | – | –
Cc1cc(Nc2ncnc3ccc(NC4=NC(C)(C)CO4)cc23)ccc1Oc1ccn2ncnc2c1 [Irbinitinib, reference compound] | ≥ 500 nM | – | ≥ 500 nM | ≥ 500 nM | – | 100 to 250 nM | > 500 nM | 100 to 250 nM | > 500 nM | 100 to 250 nM | 250 to 500 nM | 250 to 500 nM | 18 | – | 250 to 500 nM | < 100 nM
COc1cc2ncnc(Nc3ccc(F)c(Cl)c3)c2cc1NC(=O)/C=C/CN1CCCCC1 [dacomitinib] | – | no response | – | – | partially responded | – | – | – | – | – | – | – | – | – | – | –
